From patent US20210253595A1, “2-Aminopyrimidine Derivative and Preparation Method and Use Thereof” (Etern Biopharma (Shanghai) Co., Ltd., priority 2018, published 2021)

Key:
IDH1 R132C = IDH1 R132C (Homo sapiens, UniProt O75874, R132C); assay: Effect on IDH1 R132C enzyme activity (NADPH consumption, diaphorase/resazurin fluorescence); format: biochemical; settings: 80 ng IDH1 R132C, α-KG 2 mM, NADPH 20 μM, 60 min preincubation
Procedure: (§1) Test method: The enzyme activity of IDH1 converting α-KG to 2HG was measured by the consumption of NADPH. After the enzymatic reaction finished, the amount of residual NADPH can be reflected by fluorescence signal generated by the addition of catalytically excessive diphhorase and reazurin.
(§2) 50 μL mixed liquid of substrate α-KG and NADPH (final concentration of substrate α-KG was 2 mM, final concentration of NADPH was 20 μM), and the plate was incubated in dark for 60 min at room temperature. Detection reaction: 50 μL 1×detection buffer diluted 0.01 unit diabase and 30 μM resazurin were added into each well, and the mixture was incubated in dark at room temperature for 10 min. […] IC50 value was calculated by GraphPad Prism software.

IDH1 R132H = IDH1 R132H (Homo sapiens, UniProt O75874, R132H); assay: Effect on IDH1 R132H enzyme activity (NADPH consumption, diaphorase/resazurin fluorescence); format: biochemical; settings: 100 ng IDH1 R132H, α-KG 1 mM, NADPH 20 μM, 60 min preincubation
Procedure: as §1
as §2, with “α-KG was 1 mM, final” for “α-KG was 2 mM, final”, “and the mixture was incubated” for “and the plate was incubated”

[1] = tested on: 2HG of fibrosarcoma cell line HT1080 expressing IDH1 mutant IDH1-R132C; assay: Inhibition of 2HG of fibrosarcoma cell line HT1080; format: cell-based; settings: Homo sapiens, HT-1080; HT1080 cells, 48 hours with compound, 2HG in cell supernatant; read-out: HT1080 2HG inhibitory IC50
Procedure: In this experiment, the inhibitory activity of the compound of the disclosure on the concentration level of 2HG of the fibrosarcoma cell line HT1080 was determined by the following method.
The cells were digested with trypsin and inoculated into a 24 well cell culture plate with a density of 10000 cells/well. The cells were cultured in a 5% CO2 cell incubator at 37° C. After overnight culture, the test compound was added to the cells. The final concentration of DMSO was 0.1%, and DMSO was used as control. The plate was then placed in a cell incubator and cultured for 48 hours.
Detection of 2HG: 2-HG was measured by PicoProbe™ D-2-Hydroxyglutarate (D2HG) Assay Kit of BioVision. 500 uL cell supernatant was taken from each well and added to a 10 kD centrifuge column, 12000 g, and centrifuged for 10 minutes to remove the effect of enzyme activity. […] IC50 value was calculated by GraphPad Prism software.
The inhibition rate of the sample was obtained by the following formula: […]
IC50 value was calculated by GraphPad Prism software.

Chain of IDH1 R132H (O75874 whole entry R132H): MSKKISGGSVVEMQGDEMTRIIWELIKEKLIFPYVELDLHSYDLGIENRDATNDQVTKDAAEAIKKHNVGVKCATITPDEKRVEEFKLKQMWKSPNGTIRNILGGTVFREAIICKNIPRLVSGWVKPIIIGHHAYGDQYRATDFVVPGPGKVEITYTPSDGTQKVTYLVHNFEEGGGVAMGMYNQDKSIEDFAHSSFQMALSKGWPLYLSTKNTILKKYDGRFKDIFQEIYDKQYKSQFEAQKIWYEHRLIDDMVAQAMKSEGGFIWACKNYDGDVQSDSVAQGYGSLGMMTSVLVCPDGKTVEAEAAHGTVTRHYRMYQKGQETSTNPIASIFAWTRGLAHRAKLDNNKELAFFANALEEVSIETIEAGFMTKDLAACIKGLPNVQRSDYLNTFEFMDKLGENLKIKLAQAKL
Chain of IDH1 R132C (O75874 whole entry R132C): as the sequence (O75874 whole entry R132H) above, with H132C counted along it

IC50 (IDH1 R132C) | IC50 (IDH1 R132H) | IC50 [1] | SMILES
< 50 nM | < 50 nM | 10 nM | C[C@H](Nc1nccc(N2C(=O)OC[C@@H]2[C@H](C)F)n1)c1ncn2c1sc1cc(C(F)(F)F)ccc12 [Compound 8, (R)-4-((S)-1-fluoroethyl)-3-(2-(((S)-1-(6-trifluoromethylbenzo[d]imidazo[5,1-b]thiazol-3-yl)ethyl)amino)pyrimidin-4-yl)oxazolidin-2-one]
< 50 nM | < 50 nM | 35 nM | C[C@H](Nc1nccc(N2C(=O)OC[C@@H]2[C@H](C)F)n1)c1ncn2c1CCCc1cc(C(F)(F)F)ccc1-2 [Compound 13, (R)-4-((S)-1-fluoroethyl)-3-(2-(((S)-1-(8-trifluoromethyl-5,6-dihydro-4H-benzo[f]imidazo[1,5-a]azepin-3-yl)ethyl)amino)pyrimidin-4-yl)oxazolidin-2-one]
< 50 nM | < 50 nM | 140 nM | C[C@H](Nc1nccc(N2C(=O)OC3(COC3)[C@@H]2c2ccccc2)n1)c1ncn2c1CCc1cc(C(F)(F)F)ccc1-2 [Compound 16, (S)-8-phenyl-7-(2-(((S)-1-(7-trifluoromethyl-4,5-dihydroimidazo[1,5-a]quinolin-3-yl)ethyl)amino)pyrimidin-4-yl)-2,5-dioxa-7-azaspiro[3.4]octan-6-one]
